Results as given in US20050026836A1, “Composition for the treatment of damaged tissue” (priority 1999, published 2005).

How the values were obtained:
Format in all cases: biochemical
MMP-13 [1] = target: T1, MMP-13 (Homo sapiens, UniProt P45452); assay: MMP-13 fluorogenic inhibition assay; conditions: estimated from IC50; read-out: Calculated Ki(nM) MMP-13
T1 construct: made in house
Protocol: (§1) All enzymes were pre-activated at 37° C. with aminophenylmercuric acetate (APMA) or trypsin before being made up to the final concentrations used in the assay.
(§2) For MMP-1, the assay buffer used was 50 mM Tris, 200 mM NaCl, 5 mM CaCl2, 20 μM ZnCl2, 0.05% (w/v) Brij 35, pH 7.5. […] For MMP-13, the assay buffer used was 50 mM Tris, pH 7.5, 200 mM NaCl, 5 mM CaCl2, […] and 0.02% (w/v) Brij 35.
Assays were carried out in 96-well microfluor plates. All incubations were performed at 37° C. and fluorescence readings determined at 360 nm γex and 450 nm γem.
For the assay, the fluorescence values at time zero were subtracted from those determined at 15 or 20 minutes. The % response was then calculated by comparison to positive controls (enzyme, buffer and substrate in the absence of inhibitor). IC50 values were then determined using FitCurve (Excel Tessella Stats add-in).
(§3) These were estimated using the following equation: IC50=(Ki*[…], where S is the substrate concentration and Km the Michaelis-Menton coefficient. Serine Protease Assays

MMP-13 [2] = target: T1, MMP-13; assay: Reduction of MMP-13-catalysed degradation of KGF-2; conditions: MMP-13 / KGF-2, read-out: Percentage inhibition of proteolysis
[3] = target: T2, catalytic domain human MMP-1 (Homo sapiens, UniProt P03956); assay: MMP-1 fluorogenic inhibition assay; conditions: * limited by compound solubility; read-out: Calculated Ki(nM) MMP-1
T2 construct: made in house
T2 sequence (P03956 100-269 limits assumed): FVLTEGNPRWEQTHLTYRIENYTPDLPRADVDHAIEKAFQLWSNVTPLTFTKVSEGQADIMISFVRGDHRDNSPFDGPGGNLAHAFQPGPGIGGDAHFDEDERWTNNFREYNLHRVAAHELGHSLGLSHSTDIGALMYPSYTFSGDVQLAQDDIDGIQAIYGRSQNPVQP
Protocol: as §1, §2
The incubation was performed at 37° C. for 60 minutes.
(§4) For MMP-2, the final assay concentrations of inhibitors used were 1000, 800, 600, 400, 200 and 100 nM. For MMP-3, the final assay concentrations of inhibitors used were 5, 4, 3, 2, 1 and 0.5 nM. For MMP-9 and MMP-14, the final assay concentrations of inhibitors used were 5, 4, 3, 2, 1 and 0.5 μM.
All assays were carried out in a black 96-well plate with a final volume of 100 μl in each well. Inhibitors were dissolved in dimethylsulphoxide (DMSO) to 1 mM. Solutions were then serially diluted in buffer to give the final concentrations shown.
as §3

[4] = target: T3, catalytic domain human MMP-14 (Homo sapiens, UniProt P50281); assay: MMP-14 fluorogenic inhibition assay; conditions: read-out: Calculated Ki(nM) MMP-14
T3 construct: made in house
Protocol: All enzymes were pre-activated at 37° C. with aminophenylmercuric acetate (APMA) or trypsin before being made up to the final concentrations used in the assay. MMP-1 (30 nM) was activated with 0.93 mM APMA for 20 minutes, MMP-2 (30 nM) was activated with 1.32 mM APMA for 1 hour, MMP-3 (1010 nM) was activated with 1.81 mM APMA for 3 hours or heat activated at 55° C. for three hours, MMP-9 (100 nM) was activated with 2 mM APMA for 2 hours, human MMP-13 (100 nM) was activated with 2 mM APMA for 2 hours, and MMP-14 (900 nM) was activated with 0.9 ng/ml trypsin for 25 minutes, followed by the addition of 4.5 ng/ml trypsin inhibitor.
as §2, with “35. For MMP-14, the assay buffer used was 50 mM Tris, 100 mM NaCl, 10 mM CaCl2, 0.25% (w/v) Brij 35, pH 7.5.” for “35.”
MMP-14 inhibition was assayed by incubating activated catalytic domain human MMP-14 at 1 nM in assay buffer with 10 μM Mca-Pro-Leu-Gly-Leu-Dpa-Ala-Arg-NH2 and six concentrations of inhibitor. The incubation was performed at 37° C. for 60 minutes.
as §4, with “The final assay concentrations of inhibitors used in the MMP-1 assays to determine Ki were 50, 40, 30, 20, 10 and 5 μM. For MMP-2,” for “For MMP-2,”
All assays were carried out in a black 96-well plate with a final volume of 100 μl in each well. Inhibitors were dissolved in dimethylsulphoxide (DMSO) to 1 mM. […] For MMP-2, MMP-3, MMP-9 and MMP-14, fluorescence was read every 2 minutes at […] and 393 nm γem for 1 hour using a Fluorostar fluorimeter (BMG) with BIOLISE software. For MMP-1 assays, the filters used were 355 nm γex and 440 nm γem; fluorescence was read every 2 minutes for 1 hour. […]

MMP-3 = target: T4, MMP-3 (Homo sapiens, UniProt P08254); assay: Reduction of MMP-3-catalysed degradation of KGF-2; conditions: MMP-3 / KGF-2, read-out: Percentage inhibition of proteolysis
T4 construct: made in house
T4 sequence (P08254 100-272 limits assumed): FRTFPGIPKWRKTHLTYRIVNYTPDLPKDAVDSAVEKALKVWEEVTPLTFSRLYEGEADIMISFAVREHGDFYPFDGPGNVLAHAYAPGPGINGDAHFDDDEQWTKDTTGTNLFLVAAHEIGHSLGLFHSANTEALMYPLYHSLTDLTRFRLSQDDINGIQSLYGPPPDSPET

- Ki (MMP-13 [1]): 857 nM
- inhibition at 0.1 µM (MMP-13 [2]; inhibitor 0.1 μM): 1.6%
- inhibition at 1 µM (MMP-13 [2]; inhibitor 1 μM): 10%
- inhibition at 10 µM (MMP-13 [2]; inhibitor 10 μM): 23.7%
- inhibition at 100 µM (MMP-13 [2]; inhibitor 100 μM): 82.9%
- Ki [3]: > 19400 nM
- Ki [4]: 35500 nM
- inhibition at 0.1 µM (MMP-3; inhibitor 0.1 μM): 45%
- inhibition at 1 µM (MMP-3; inhibitor 1 μM): 30%
- inhibition at 10 µM (MMP-3; inhibitor 10 μM): 62%
- inhibition at 100 µM (MMP-3; inhibitor 100 μM): 68%
Compound: COC[C@@H](NC(=O)[C@@H](NC(=O)[C@H](CCCc1ccc(-c2cccc(OC)c2)c(C)c1)CC(=O)O)C(C)(C)C)c1ccccc1 [compound 9454, (3R)-3-({[(1S)-2,2-Dimethyl-1-({[(1S)-2-methoxy-1-phenylethyl]amino}carbonyl)propyl]amino}carbonyl)-6-(3′-methoxy-2-methylbiphen-4-yl)hexanoic acid]
